Source: ChEMBL document CHEMBL2040848, “Synthesis and bioactivity evaluation of rhodanine derivatives as potential anti-bacterial agents” (2012)
Converted amounts (≈) assume the structure as drawn.

What was measured:
Type in all cases: functional
Staphylococcus aureus [1] = assay: Ratio of MIC for norfloxacin to compound for methicillin-resistant Staphylococcus aureus CCARM 3167 after 24 hrs by two-fold serial dilution method
Staphylococcus aureus [2] = assay: Ratio of MIC for oxacillin to compound for methicillin-resistant Staphylococcus aureus CCARM 3506 after 24 hrs by two-fold serial dilution method
Staphylococcus aureus [3] = assay: Antibacterial activity against quinolone-resistant Staphylococcus aureus CCARM 3519 after 24 hrs by two-fold serial dilution method; details: CCARM 3519, 24 h
Staphylococcus aureus [4] = assay: Ratio of MIC for norfloxacin to compound for quinolone-resistant Staphylococcus aureus CCARM 3505 after 24 hrs by two-fold serial dilution method
Staphylococcus aureus [5] = assay: Ratio of MIC for oxacillin to compound for methicillin-resistant Staphylococcus aureus CCARM 3167 after 24 hrs by two-fold serial dilution method
Staphylococcus aureus [6] = assay: Antibacterial activity against Staphylococcus aureus KCTC 503 after 24 hrs by two-fold serial dilution method; details: KCTC 503, 24 h
Staphylococcus aureus [7] = assay: Antibacterial activity against Staphylococcus aureus KCTC 209 after 24 hrs by two-fold serial dilution method; details: KCTC 209, 24 h
Staphylococcus aureus [8] = assay: Ratio of MIC for norfloxacin to compound for Staphylococcus aureus KCTC 209 after 24 hrs by two-fold serial dilution method
Escherichia coli = assay: Antibacterial activity against Escherichia coli 1356 after 24 hrs by two-fold serial dilution method; details: Escherichia coli, 1356, 24 h
Staphylococcus aureus [9] = assay: Ratio of MIC for norfloxacin to compound for methicillin-resistant Staphylococcus aureus CCARM 3506 after 24 hrs by two-fold serial dilution method
Staphylococcus aureus [10] = assay: Ratio of MIC for norfloxacin to compound for Staphylococcus aureus KCTC 4220 after 24 hrs by two-fold serial dilution method
Staphylococcus aureus [11] = assay: Antibacterial activity against methicillin-resistant Staphylococcus aureus CCARM 3506 after 24 hrs by two-fold serial dilution method; details: CCARM 3506, 24 h
Staphylococcus aureus [12] = assay: Ratio of MIC for norfloxacin to compound for quinolone-resistant Staphylococcus aureus CCARM 3519 after 24 hrs by two-fold serial dilution method
Staphylococcus aureus [13] = assay: Antibacterial activity against Staphylococcus aureus KCTC 4220 after 24 hrs by two-fold serial dilution method; details: KCTC 4220, 24 h
Staphylococcus aureus [14] = assay: Antibacterial activity against methicillin-resistant Staphylococcus aureus CCARM 3167 after 24 hrs by two-fold serial dilution method; details: CCARM 3167, 24 h
Staphylococcus aureus [15] = assay: Ratio of MIC for norfloxacin to compound for Staphylococcus aureus KCTC 503 after 24 hrs by two-fold serial dilution method
Staphylococcus aureus [16] = assay: Antibacterial activity against quinolone-resistant Staphylococcus aureus CCARM 3505 after 24 hrs by two-fold serial dilution method; details: CCARM 3505, 24 h

Structure (SMILES)	Ratio (Staphylococcus aureus [1])	Ratio (Staphylococcus aureus [2])	MIC (Staphylococcus aureus [3]) [µg/mL]	Ratio (Staphylococcus aureus [4])	Ratio (Staphylococcus aureus [5])	MIC (Staphylococcus aureus [6]) [µg/mL]	MIC (Staphylococcus aureus [7]) [µg/mL]	Ratio (Staphylococcus aureus [8])	MIC (Escherichia coli) [µg/mL]	Ratio (Staphylococcus aureus [9])	Ratio (Staphylococcus aureus [10])	MIC (Staphylococcus aureus [11]) [µg/mL]	Ratio (Staphylococcus aureus [12])	MIC (Staphylococcus aureus [13]) [µg/mL]	MIC (Staphylococcus aureus [14]) [µg/mL]	Ratio (Staphylococcus aureus [15])	MIC (Staphylococcus aureus [16]) [µg/mL]
O=C(COc1ccc(/C=C2\SC(=S)N([C@@H](Cc3c[nH]c4ccccc34)C(=O)O)C2=O)cc1)c1ccc(Cl)cc1	4	64	1 (≈ 1.73 µM)	64	64	1 (≈ 1.73 µM)	1 (≈ 1.73 µM)	2	> 64	4	2	1 (≈ 1.73 µM)	64	1 (≈ 1.73 µM)	1 (≈ 1.73 µM)	2	1 (≈ 1.73 µM)
O=C(COc1ccc(/C=C2\SC(=S)N([C@@H](Cc3c[nH]c4ccccc34)C(=O)O)C2=O)cc1)c1cccc(Cl)c1	4	64	1 (≈ 1.73 µM)	64	64	4 (≈ 6.93 µM)	4 (≈ 6.93 µM)		> 64	4		1 (≈ 1.73 µM)	64	8 (≈ 13.9 µM)	1 (≈ 1.73 µM)		1 (≈ 1.73 µM)
O=C(COc1ccc(/C=C2\SC(=S)N([C@@H](Cc3ccccc3)C(=O)O)C2=O)cc1)c1ccc(F)cc1	4	64	1 (≈ 1.92 µM)	64	64	4 (≈ 7.67 µM)	4 (≈ 7.67 µM)		> 64	4		1 (≈ 1.92 µM)	64	4 (≈ 7.67 µM)	1 (≈ 1.92 µM)		1 (≈ 1.92 µM)
Cc1ccc(C(=O)COc2ccc(/C=C3\SC(=S)N([C@@H](Cc4ccccc4)C(=O)O)C3=O)cc2)cc1			8 (≈ 15.5 µM)			8 (≈ 15.5 µM)	8 (≈ 15.5 µM)		> 64			8 (≈ 15.5 µM)		8 (≈ 15.5 µM)	4 (≈ 7.73 µM)		4 (≈ 7.73 µM)
O=C(COc1ccc(/C=C2\SC(=S)N([C@@H](Cc3ccccc3)C(=O)O)C2=O)cc1)c1cccc(Cl)c1			4 (≈ 7.43 µM)			4 (≈ 7.43 µM)	4 (≈ 7.43 µM)		> 64			4 (≈ 7.43 µM)		8 (≈ 14.9 µM)	4 (≈ 7.43 µM)		4 (≈ 7.43 µM)
O=C(COc1ccc(/C=C2\SC(=S)N([C@@H](Cc3ccccc3)C(=O)O)C2=O)cc1)c1ccc(Cl)cc1Cl			8 (≈ 14 µM)			8 (≈ 14 µM)	8 (≈ 14 µM)		> 64			8 (≈ 14 µM)		8 (≈ 14 µM)	8 (≈ 14 µM)		8 (≈ 14 µM)
COc1cccc(C(=O)COc2ccc(/C=C3\SC(=S)N([C@@H](Cc4ccc(O)cc4)C(=O)O)C3=O)cc2)c1			16 (≈ 29.1 µM)			8 (≈ 14.6 µM)	8 (≈ 14.6 µM)		> 64			16 (≈ 29.1 µM)		32 (≈ 58.2 µM)	8 (≈ 14.6 µM)		8 (≈ 14.6 µM)
COc1ccccc1C(=O)COc1ccc(/C=C2\SC(=S)N([C@@H](Cc3ccccc3)C(=O)O)C2=O)cc1			4 (≈ 7.5 µM)			4 (≈ 7.5 µM)	4 (≈ 7.5 µM)		> 64			4 (≈ 7.5 µM)		4 (≈ 7.5 µM)	4 (≈ 7.5 µM)		4 (≈ 7.5 µM)
O=C(COc1ccc(/C=C2\SC(=S)N([C@@H](Cc3ccc(O)cc3)C(=O)O)C2=O)cc1)c1ccccc1Br			32 (≈ 53.5 µM)			16 (≈ 26.7 µM)	16 (≈ 26.7 µM)		> 64			32 (≈ 53.5 µM)		32 (≈ 53.5 µM)	16 (≈ 26.7 µM)		16 (≈ 26.7 µM)
O=C(COc1ccc(/C=C2\SC(=S)N([C@@H](Cc3c[nH]c4ccccc34)C(=O)O)C2=O)cc1)c1ccccc1			8 (≈ 14.7 µM)			8 (≈ 14.7 µM)	8 (≈ 14.7 µM)		> 64			8 (≈ 14.7 µM)		8 (≈ 14.7 µM)	8 (≈ 14.7 µM)		8 (≈ 14.7 µM)
O=C(COc1ccc(/C=C2\SC(=S)N([C@@H](Cc3ccc(O)cc3)C(=O)O)C2=O)cc1)c1cccc(Cl)c1			8 (≈ 14.4 µM)			8 (≈ 14.4 µM)	8 (≈ 14.4 µM)		> 64			8 (≈ 14.4 µM)		8 (≈ 14.4 µM)	8 (≈ 14.4 µM)		8 (≈ 14.4 µM)
O=C(COc1ccc(/C=C2\SC(=S)N([C@@H](Cc3ccccc3)C(=O)O)C2=O)cc1)c1ccccc1			4 (≈ 7.94 µM)			8 (≈ 15.9 µM)	4 (≈ 7.94 µM)		> 64			4 (≈ 7.94 µM)		8 (≈ 15.9 µM)	8 (≈ 15.9 µM)		8 (≈ 15.9 µM)
O=C(COc1ccc(/C=C2\SC(=S)N([C@@H](Cc3ccc(O)cc3)C(=O)O)C2=O)cc1)c1ccc(Br)cc1			8 (≈ 13.4 µM)			4 (≈ 6.68 µM)	4 (≈ 6.68 µM)		> 64			8 (≈ 13.4 µM)		8 (≈ 13.4 µM)	8 (≈ 13.4 µM)		8 (≈ 13.4 µM)
O=C(O)CN1C(=O)C(=Cc2ccc(/C=C/C(=O)c3ccc(Cl)cc3Cl)cc2)SC1=S			2 (≈ 4.18 µM)			2 (≈ 4.18 µM)	2 (≈ 4.18 µM)		> 64			2 (≈ 4.18 µM)		2 (≈ 4.18 µM)	2 (≈ 4.18 µM)		2 (≈ 4.18 µM)
O=C(COc1ccc(/C=C2\SC(=S)N([C@@H](Cc3ccc(O)cc3)C(=O)O)C2=O)cc1)c1cccc(Br)c1			8 (≈ 13.4 µM)			8 (≈ 13.4 µM)	8 (≈ 13.4 µM)		> 64			8 (≈ 13.4 µM)		8 (≈ 13.4 µM)	8 (≈ 13.4 µM)		8 (≈ 13.4 µM)
O=C(COc1ccc(/C=C2\SC(=S)N([C@@H](Cc3ccc(O)cc3)C(=O)O)C2=O)cc1)c1ccc(F)cc1			8 (≈ 14.9 µM)			8 (≈ 14.9 µM)	8 (≈ 14.9 µM)		> 64			8 (≈ 14.9 µM)		8 (≈ 14.9 µM)	8 (≈ 14.9 µM)		8 (≈ 14.9 µM)
Cc1ccc(C(=O)COc2ccc(/C=C3\SC(=S)N([C@@H](Cc4c[nH]c5ccccc45)C(=O)O)C3=O)cc2)cc1			8 (≈ 14.4 µM)			4 (≈ 7.19 µM)	4 (≈ 7.19 µM)		> 64			8 (≈ 14.4 µM)		8 (≈ 14.4 µM)	4 (≈ 7.19 µM)		4 (≈ 7.19 µM)
O=C(COc1ccc(/C=C2\SC(=S)N([C@@H](Cc3ccc(O)cc3)C(=O)O)C2=O)cc1)c1ccccc1F			16 (≈ 29.8 µM)			16 (≈ 29.8 µM)	8 (≈ 14.9 µM)		> 64			16 (≈ 29.8 µM)		32 (≈ 59.5 µM)	16 (≈ 29.8 µM)		16 (≈ 29.8 µM)
